Target: Cell division control protein 42 homolog (Homo sapiens) (UniProt P60953)
Experiment: inhibition of fluorescent GTP binding to mutant Cdc42 – biochemical, probe extension, bead-based multiplex flow cytometry, round 1, SAR follow-up (AID 588373)
Details: Bodipy-FL-GTP binding, EDTA

Cell division control protein 42 homolog (Homo sapiens), sequence (P60953 whole entry, looked up): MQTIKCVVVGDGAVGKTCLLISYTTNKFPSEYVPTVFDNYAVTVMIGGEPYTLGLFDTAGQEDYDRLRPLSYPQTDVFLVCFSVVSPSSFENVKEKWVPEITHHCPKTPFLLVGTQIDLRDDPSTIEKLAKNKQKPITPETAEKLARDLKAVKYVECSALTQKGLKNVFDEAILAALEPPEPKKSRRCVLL

EC50 [nM] | SMILES
368 | O=C(C#Cc1ccccc1)c1cccc([N+](=O)[O-])c1
1890 | COc1ccc(C2CC(c3ccccc3)=NN2c2ccc(S(N)(=O)=O)cc2)cc1 (stereo not drawn)
6140 | NS(=O)(=O)c1ccc(N2N=C(c3ccccc3)CC2c2ccccc2)cc1 (stereo not drawn)

From PubChem BioAssay AID588373 (NMMLSC, 2011)
